Test results: paper PMC10035370, “Targeting Tumor Angiogenesis with the Selective VEGFR-3 Inhibitor EVT801 in Combination with Cancer Immunotherapy” (Cancer Research Communications, 2022)
Each block holds one molecule with its values, some of them ahead of it.

Legend:
NCI-H1703 cells = assay: NCI-H1703 viability (ATP reduction); format: cell-based; conditions: Homo sapiens, in vitro
Method: NCI-H1703 were seeded in 96-well plates coated with 0.3 % gelatin (5 x 10^3 cells per well) and were incubated in RPMI 0.1 % FCS with VEGF-C (300 ng/mL) or VEGF-D (300 ng/mL) in the absence or presence of increasing doses of EVT801. After 5 days, viable cells were quantified with the cell Titer-glo luminescent cell viability assay (Promega) as previously described (1).

[1] = tested on: NCI-H1703 tumor xenografts; assay: NCI-H1703 subcutaneous xenograft tumor mouse model; format: in vivo, mice; conditions: 30 mg/kg twice per day
Method: A total number of 40 homozygous NOD.CB17 Prkdc^scid/NCrHsd mice were used for the xenograft tumor model. On the day of implantation, NCI-H1703 cells were harvested and suspended at a concentration of 1 × 10^8 cells per mL in an equal mix of Cultrex:RPMI without supplements. A volume of 100 μL was injected into the right hind flank of each animal. Tumor volumes were monitored until mean tumor volume reached 150 mm^3. Then, mice were stratified into four treatment groups of each 10 mice and orally dosed twice per day with either EVT801 30 mg/kg and EVT801 vehicle [Soluplus (BASF)/water/hydroxypropylcellulose SL (Nisso America)], or 30 mk/kg pazopanib and pazopanib vehicle (0.5% Hydroxypropyl methylcellulose trimellitate (HPMCT) + 0.1% Tween-80). A period of 8 hours was observed between the first and second daily dose.

RT-HAM-001 tumors = assay: RT-001-HAM subcutaneous patient-derived xenograft tumor mouse model; format: in vivo, mice; conditions: 30 mg/kg twice per day, 7-day treatment
Method: Patient-derived tumors of the same passage were transplanted subcutaneously outbred athymic (nu/nu) female HSD mice. When tumor volume reached 726 to 1,437 mm^3, 4 donor mice were sacrificed by cervical dislocation, and tumors were aseptically excised and dissected. After removing necrotic areas, tumor fragments of approximately 20 mm^3 were transferred to culture medium before grafting. A total of 108 mice were anesthetized with 100 mg/kg ketamine hydrochloride (Virbac) and 10 mg/kg xylazine (Bayer). Then, a tumor fragment was placed in the subcutaneous tissue of an incision at the level of the interscapular region as described previously ([30]). All mice from the same experiment were implanted on the same day. A total of 54 mice with RT-001-HAM established growing tumor (P6.0.0/0) between 62.5 and 196 mm^3 were allocated according to tumor volume, ensuring homogenous median and mean tumor volume in each treatment arm. Treatments with 5 mL/kg vehicle, 30 mg/kg EVT801, or 30 mg/kg pazopanib started 15 days after tumor implantation and continued twice per day until termination 7 days later. Tumor volumes were measured via a caliper three times a week during the treatment period. All animals were weighed at the same time as tumor size measurement. Plasma and fresh tumor samples were collected at different timepoints after final dose at day 7 from all mice.

DEN-induced liver tumor = assay: N-diethylnitrosamine-induced hepatocarcinoma mouse model; format: in vivo, mice; conditions: 30 mg/kg daily for 2 months
Method: After weighing, 38 male C3/H mice received a 10 mg/kg dose of N-diethylnitrosamine (DEN) intraperitoneally, whereas a group of 5 animals was kept without DEN injection as control group. After 12 months, mice that received DEN injection were randomized by weight in two groups of each 19 animals. The mice were dosed daily orally for 2 months either with EVT801 or vehicle. On the day of termination, mice treated with EVT801 received a last dose of 30 mg/kg to take blood and tumor samples for compound concentration determination. After incision of the peritoneal cavity, blood was taken from the vena cava. Following excision and weighing of the liver, the number of tumors per liver was counted. The tumor burden was calculated as the sum of individual tumor volumes for each mouse. No blood sampling was performed on control and vehicle groups. Plasma and tumor samples were stored at −20°C until analysis. Concentration of EVT801 was determined by LC/MS-MS.

[2] = Blood pressure in telemetered rat model of hypertension; format: in vivo; conditions: single oral administration of 10, 30 or 100 mg/kg
Method: Supplementary Figure 8. EVT801 and sorafenib show opposing effects on blood pressure in rats. (A) Monitoring of the blood pressure over 24 h after single oral administration of 100 mg/kg EVT801 or 500 mg/kg of EVT801, compared to animals treated with vehicle. (B) Monitoring of the blood pressure over 24 h after single oral administration of 10 mg/kg sorafenib, 30 mg/kg sorafenib or 100 mg/kg of sorafenib, compared to animals treated with vehicle.

hLMVEC = assay: Growth factor-induced hLMVEC proliferation; format: cell-based, human; conditions: stimulation by the ligand
Method: hLMVEC were seeded in white cell culture-treated flat and clear bottom multi-well plates and incubated at 37 °C overnight, before compounds were added. After incubation for 72 h at 37 °C, plates were equilibrated to ambient temperature for 1 h, and CellTiterGlo reagent (Promega) was added. After approximately 1h, luminescence was measured using a luminometer. Curves were fitted via sigmoidal dose response curves, and IC50 values were determined.

- IC50 (NCI-H1703 cells): 90 nM
Molecule: Cc1ccc(Nc2nccc(N(C)c3ccc4c(C)n(C)nc4c3)n2)cc1S(N)(=O)=O [pazopanib, reference compound]
- CD31 IHC, tumor vessels [1]: decreased the number of vessels while increasing the proportion of larger ones
- decrease of tumor weight compared with vehicle ([1]; endpoint): 56%
- T/C ratio, tumor growth ([1]; oral, vs corresponding vehicle): 53%
- T/C ratio, tumor volume (RT-HAM-001 tumors): 77%
- size of necrotic areas in tumors (RT-HAM-001 tumors): remained unaffected
- hypoxic areas (CAIX) in tumors (RT-HAM-001 tumors; not statistically significant): showed opposing effects

Molecule: CNC(=O)c1cc(Oc2ccc(NC(=O)Nc3ccc(Cl)c(C(F)(F)F)c3)cc2)ccn1 [sorafenib, reference compound]
- T/C ratio, tumor growth (DEN-induced liver tumor): 32%
- liver weight (DEN-induced liver tumor): reduced liver weight
- effect on blood pressure [2]: showed the opposite effect

B1: VEGF-D: VEGFR-3 ligand (protein, UniProt O43915 89-205, looked up)
Vascular endothelial growth …: FAATFYDIETLKVIDEEWQRTQCSPRETCVEVASELGKSTNTFFKPPCVNVFRCGGCCNEESLICMNTSTSYISKQLFEISVPLTSVPELVPVKVANHTGCKCLPTAPRHPYSIIRR
- increase in hLMVEC proliferation (hLMVEC): 34%

B2: VEGF-C: VEGFR-3 ligand (protein, UniProt P49767 112-227, looked up)
Vascular endothelial growth …: AHYNTEILKSIDNEWRKTQCMPREVCIDVGKEFGVATNTFFKPPCVSVYRCGGCCNSEGLQCMNTSTSYLSKTLFEITVPLSQGPKPVTISFANHTSCRCMSKLDVYRQVHSIIRR
- increase in hLMVEC proliferation (hLMVEC): 50%
